Laboratory results: patent publication US20230180804A1, “FLAVOR COMPOSITION, AND FOOD AND BEVERAGE” (TAKASAGO INTERNATIONAL CORPORATION, priority 2020, published 2023)

What was measured:
[1] = Sensory evaluation of p-cresol odor masking in p-cresol-containing citrus-flavored beverage; details: for p-Cresol Odor Intensity: beverage with 50 ppb p-cresol, average score of 7 panelists, scale 0-4
Experimental: To 2 g of lemon flavor obtained by making lemon oil into an essence, purified water was added to adjust the total amount to 1000 ml. To this citrus-flavored beverage, p-cresol adjusted to a concentration of 1% by mass with 95% ethanol was added to 50 ppb in the citrus-flavored beverage. To this p-cresol-containing citrus-flavored beverage, 1-oxacycloheptadecan-7-en-2-one was added at the concentrations presented in Table 1 to confirm the p-cresol odor intensity (masking effect) and the influence on the citrus flavor of each sample.
For the test, seven skilled panelists were selected to perform sensory evaluation. The p-cresol odor intensity of the p-cresol-containing citrus-flavored beverage without added l-oxacycloheptadecan-7-en-2-one was determined as “Rating: 4,” and the p-cresol odor intensity of the p-cresol-free citrus-flavored beverage was determined as “Rating: 0,” and the p-cresol odor intensity (masking effect) of each sample was relatively evaluated according to the following evaluation criteria.
In addition, the influence of the citrus-flavored beverage on the citrus flavor was evaluated absolutely according to the following evaluation criteria for the presence or absence of off- flavor other than p-cresol odor and citrus flavor (Off-Flavor Intensity).
The results are as in Table 1, presenting the average score of the evaluation results for each panelist.

[2] = Sensory evaluation of p-cresol odor masking in p-cresol-containing grated raw ginger; details: for p-Cresol Odor Intensity: grated ginger with 600 ppb p-cresol, average score of 9 panelists, scale 0-4
Experimental: To commercially available grated raw ginger, p-cresol adjusted to a concentration of 0.1% with 95% ethanol was added to a concentration of 600 ppb in the ginger. To this p-cresol-containing ginger, 1-oxacycloheptadecan-8-en-2-one was added at the concentrations presented in Table 16 to confirm the p-cresol odor intensity (masking effect) and the influence on the ginger flavor of each sample.
Nine skilled panelists were selected to perform the same sensory evaluation as in Example 1. The results are as in Table 16, presenting the average score of the evaluation results for each panelist.

[3] = target: T1, olfactory receptor OR9Q2 (Homo sapiens, UniProt Q8NGE9); test: OR9Q2 response inhibitory effect for p-cresol, luciferase reporter gene assay; assay type: cell-based; details: p-cresol 100 µM mixed with various concentrations of compound; cells expressing OR9Q2; ratio of Fold Increase value (FIGS. 1 to 11)
T1 construct: 20 N-terminal amino acid residues of bovine rhodopsin (Rho tag); expressed in transfected cells; host or cells: HEK293T
T1 sequence (Q8NGE9 1-314): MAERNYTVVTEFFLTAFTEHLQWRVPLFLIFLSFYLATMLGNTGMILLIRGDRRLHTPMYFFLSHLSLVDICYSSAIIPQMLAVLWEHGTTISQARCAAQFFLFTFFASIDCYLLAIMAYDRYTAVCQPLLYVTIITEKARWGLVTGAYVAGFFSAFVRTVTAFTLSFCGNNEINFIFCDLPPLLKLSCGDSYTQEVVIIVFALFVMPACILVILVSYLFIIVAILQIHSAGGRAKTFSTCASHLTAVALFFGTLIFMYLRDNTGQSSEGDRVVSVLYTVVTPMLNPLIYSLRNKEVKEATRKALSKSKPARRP
Experimental: The human olfactory receptor gene was obtained by cloning from Human Genomic DNA: Female (Promega) by PCR method based on the sequence information registered in GenBank. The 20 N-terminal amino acid residues of bovine rhodopsin were incorporated into the pME18S vector, and the obtained human olfactory receptor gene was incorporated downstream thereof to obtain a human olfactory receptor gene expression vector.
In 10 µL of Opti-MEM I (gibco), 0.05 µg of human olfactory receptor gene expression vector, 0.01 µg of RTP1S vector, 0.01 µg firefly luciferase vector pGL4.29 (Promega) containing cAMP response element promoter, and 0.005 µg of Renilla luciferase vector pGL4.74 (Promega) containing thymidine kinase promoter were dissolved to prepare a gene solution (for one well). HEK293T cells were seeded at 100 µL each in a 96-well plate (Biocoat, Coming) at the number of cells reaching confluence after 24 hours, and a gene solution was added to each well by the lipofection method according to the usage of Lipofectamine 3000 to introduce genes into the cells, and the cells were cultured at 37° C. in a 5% carbon dioxide atmosphere for 24 hours.
After removing the culture medium, the resultant was prepared with CD293 (gibco) medium ([…] added) so as to have a concentration for measuring the aroma substance to be tested, 50 µL of which was added each and stimulated for 3 hours, and then luciferase activity was measured according to the method of using the Dual-Luciferase Reporter Assay System (Promega). The response intensity of the olfactory receptor polypeptide was expressed as a Fold Increase value obtained by dividing the luciferase activity produced by stimulating the aroma substance by the luciferase activity produced in the test system containing no aroma substance.
p-Cresol at 100 µM was mixed with various concentrations of 1-oxacycloheptadecan-7-en-2-one, 1-oxacycloheptadecan-8-en-2-one, isoambrettolide, pentalide, muscone, civetone, 8-2-decenolactone, cinnamic aldehyde, […], sclareolide, and ethyl maltol, and receptor responses were measured in cells expressing OR9Q2. The ratio of the Fold Increase value in the test in which each compound was mixed was calculated, where the Fold Increase value in the test in none of these compounds was mixed was set to 100. FIGS. 1 to 11 present the results.

[4] = Sensory evaluation of p-cresol odor masking in p-cresol-containing lemon dressing; details: lemon dressing with 500 ppb p-cresol; for p-Cresol Odor Intensity: average score of 9 panelists, scale 0-4
Experimental: To a commercially available lemon dressing, p-cresol adjusted to a concentration of 0.1% with 95% ethanol was added to 500 ppb in the lemon dressing. To this p-cresol-containing lemon dressing, l-oxacycloheptadecan-8-en-2-one was added at the concentrations presented in Table 18 to confirm the p-cresol odor intensity (masking effect) and the influence on the citrus flavor of each sample.
Nine skilled panelists were selected to perform the same sensory evaluation as in Example 1. The results are as in Table 18, presenting the average score of the evaluation results for each panelist.

[5] = citrus-flavored beverage with 50 ppb p-cresol
[6] = grated raw ginger with 600 ppb p-cresol

O=C1CCCCCCCCCCCCCCO1 [Pentalide, pentalide]
p-Cresol Odor Intensity ([1]; 0.01 ppt added): 3.6 points | p-Cresol Odor Intensity ([1]; 0.1 ppt added): 2.9 points | p-Cresol Odor Intensity ([1]; 1 ppb added): 1.4 points | p-Cresol Odor Intensity ([1]; 1 ppt added): 2.6 points | p-Cresol Odor Intensity ([1]; 10 ppb added): 1.0 points | p-Cresol Odor Intensity ([1]; 10 ppt added): 2.0 points | p-Cresol Odor Intensity ([1]; 100 ppb added): 0.6 points | p-Cresol Odor Intensity ([1]; 100 ppt added): 1.9 points | concentration at which the compound masks the p-cresol odor and does not affect the citrus flavor, lower limit [1, 5]: ≥ 0.1 ppt | concentration at which the compound masks the p-cresol odor and does not affect the citrus flavor, upper limit [1, 5]: ≤ 1 ppb | p-Cresol Odor Intensity ([2]; 1 ppb added): 1.3 points | p-Cresol Odor Intensity ([2]; 1 ppt added): 3.3 points | p-Cresol Odor Intensity ([2]; 10 ppb added): 1.1 points | p-Cresol Odor Intensity ([2]; 10 ppt added): 2.7 points | p-Cresol Odor Intensity ([2]; 100 ppt added): 1.6 points | concentration at which the compound masks the p-cresol odor and does not affect the ginger flavor, lower limit [2, 6]: ≥ 10 ppt | concentration at which the compound masks the p-cresol odor and does not affect the ginger flavor, upper limit [2, 6]: ≤ 1 ppb | effect of suppressing the response of OR9Q2 to p-cresol [3]: suppressing the response of OR9Q2 to p-cresol in a concentration-dependent manner | p-Cresol Odor Intensity ([4]; 1 ppb added): 1.1 points | p-Cresol Odor Intensity ([4]; 1 ppt added): 3.6 points | p-Cresol Odor Intensity ([4]; 10 ppb added): 0.9 points | p-Cresol Odor Intensity ([4]; 10 ppt added): 2.8 points | p-Cresol Odor Intensity ([4]; 100 ppt added): 1.9 points | concentration at which the compound masks the p-cresol odor and does not affect the citrus flavor, lower limit [4]: ≥ 10 ppt | concentration at which the compound masks the p-cresol odor and does not affect the citrus flavor, upper limit [4]: ≤ 10 ppb
